Data reported in PubChem BioAssay (NCI).
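Cells were grown in 96-well plates and exposed to each compound for 48 hours at five concentrations; endpoints were interpolated linearly between bracketing concentrations, or set to the highest concentration if not reached. GI50 marks 50% less growth. TGI: concentration producing complete growth inhibition.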

Experiments:
Experiment in all cases: inhibition of tumour cell growth, NCI panel, 48 h
SF-268 CNS = system: SF-268 CNS
SK-MEL-5 melanoma = system: SK-MEL-5 melanoma
OVCAR-8 ovarian = system: OVCAR-8 ovarian
NCI-H226 lung = system: NCI-H226 lung
IGROV1 ovarian = system: IGROV1 ovarian
HS 578T breast = system: HS 578T breast
SW-620 colon = system: SW-620 colon
RXF 393 renal = system: RXF 393 renal
LOX IMVI melanoma = system: LOX IMVI melanoma
SK-OV-3 ovarian = system: SK-OV-3 ovarian

Row | Structure (SMILES) | GI50 (SF-268 CNS) [µM] | TGI (SF-268 CNS) [µM] | GI50 (SK-MEL-5 melanoma) [µM] | TGI (SK-MEL-5 melanoma) [µM] | GI50 (OVCAR-8 ovarian) [µM] | TGI (OVCAR-8 ovarian) [µM] | GI50 (NCI-H226 lung) [µM] | TGI (NCI-H226 lung) [µM] | GI50 (IGROV1 ovarian) [µM] | TGI (IGROV1 ovarian) [µM] | GI50 (HS 578T breast) [µM] | TGI (HS 578T breast) [µM] | GI50 (SW-620 colon) [µM] | TGI (SW-620 colon) [µM] | GI50 (RXF 393 renal) [µM] | TGI (RXF 393 renal) [µM] | GI50 (LOX IMVI melanoma) [µM] | TGI (LOX IMVI melanoma) [µM] | GI50 (SK-OV-3 ovarian) [µM] | TGI (SK-OV-3 ovarian) [µM]
1 | COc1cc2cc(C(=O)O)[nH]c2cc1OCc1ccccc1 | > 100 | > 100 | 80.8 | > 100 | > 100 | > 100 | > 100 | > 100 | > 100 | > 100 | > 100 | > 100 | > 100 | > 100 | > 100 | > 100 | > 100 | > 100 | > 100 | > 100
2 | O=C1OC(c2ccc([N+](=O)[O-])cc2)=N/C1=C\c1ccc(O)cc1 |  | > 100 |  | > 100 |  | > 100 |  | > 100 |  | > 100 |  | > 100 |  | > 100 |  | > 100 |  | > 100 |  | > 100
3 | C=CCSc1n[nH]c(-c2cccs2)n1 | > 100 | > 100 | > 100 | > 100 | > 100 | > 100 | > 100 | > 100 | > 100 | > 100 | > 100 | > 100 | > 100 | > 100 | > 100 | > 100 | > 100 | > 100 | > 100 | > 100
4 | CCN(C)S(=O)(=O)Nc1cccc(Nc2ncnc3cc(NC(=O)CCl)ccc23)c1Cl | 2.84 | 7.72 | 3.43 | 7.83 | 5.18 | 17.6 | 3.68 | 12.6 | 3.5 | 8.62 | 3.55 | 18.6 | 1.07 | 4.52 | 3.57 | 7.42 | 1.01 | 4.44 | 5.58 | 19.1
5 | C=C1CC2(OC1=O)c1ccccc1CCc1ccccc12 |  | 4.54 |  | 28 |  | 9.9 |  | 26.8 |  | 14.1 |  | 5.03 |  | 3.02 |  | 3.07 |  | 2.9 |  | 31.9
6 | N#Cc1ccc(-n2cnc(NC(=O)[C@H]3CCN(C#N)C3)c2)cc1 | 2.83 | 25.5 | 2.08 | 6.13 | 1.92 | > 100 | 2.51 | 9.85 | 2.01 | > 100 | 1.9 | 13.6 | 1.46 | 26.4 | 0.374 | 2.6 | 1.27 | > 100 | 3.77 | > 51.4
7 | COc1cc(/C=C2\C(=O)N(c3c(Cl)cccc3Cl)c3ccccc32)cc(OC)c1O | 0.413 | 14.6 | 0.375 | 6.26 | 0.442 | 19.8 | 7.91 | 29 | 1.01 | 15 | 8.98 | > 27.8 | 0.702 | 16.2 | 1.86 | 11.6 | 0.303 | 4.65 | 2.06 | 18.9
8 | CCOC(=O)C(=Cc1ccc(Br)cc1)C(=O)OCC | 1.91 | 3.95 | 1.65 | 3.12 | 2.36 | 6.79 | 1.96 | 5.5 | 1.81 | 3.94 | 4.03 | > 19.6 | 1.61 | 3.58 | 1.15 | 2.55 | 0.793 | 2.24 | 5.41 | 17
9 | Cc1ccc(NC2=C(Cl)C(=O)c3nc(C)ccc3C2=O)cc1 | 1.74 | 3.78 | 1.71 | 3.1 | 1.47 | 3.14 | 1.41 | 3.2 | 1.54 | 3.35 | 1.88 | 4.8 | 1.74 | 3.7 | 1.57 | 2.96 | 0.711 | 2.22 | 11.9 | 24.6
10 | NC(C(=O)O)C(N)C(=O)O (stereo not given) |  | > 100 |  | > 100 |  | > 100 |  | > 100 |  | > 100 |  | > 100 |  | > 100 |  | > 100 |  | > 100 |  | > 100
11 | COc1ccc2[nH]cc(/C=C3\C(=O)Nc4ccccc43)c2c1 | 5.92 | 29.9 | 3.43 | 15.2 | 7.02 | 21.8 | 7.65 | 35.9 | 2.82 | 16.8 | 3.79 | 19.9 | 2.92 | 12.8 | 2.95 | 13.3 | 4.62 | 15.9 | 4.75 | 21.5
12 | CCOC(=O)c1c(C)c2c(n1C)CSc1cc(S(=O)(=O)c3ccccc3)c(=O)[nH]c1-2 | 27.8 | > 100 | 13.2 | 29.6 | 36.7 | > 100 | 23.9 | > 100 | 16.7 | > 100 | 40.1 | > 100 | 35.1 | > 100 | 44.4 | > 100 | 24.1 | > 100 | 28.9 | > 100
13 | NC(=O)c1c(OCc2c(F)cc(Br)cc2F)nsc1NC(=O)NCCCCN1CCCC1 | 1.78 | > 10 | 1.56 | 2.96 | 4 | > 10 | 0.453 | > 10 | 0.327 | 4.29 | 0.157 | 0.971 | 3.03 | > 10 | 0.362 | 1.71 | 1.16 | 2.5 | > 10 | > 10
